Measurements: ChEMBL document CHEMBL1139566, “Discovery of AICAR Tfase inhibitors that disrupt requisite enzyme dimerization” (Bioorg Med Chem Lett, 2005)
Calls of active or inactive are those of the source. The calls are words filed in the database; no cut-off is given here. Peptide text beside a SMILES is read from it. * marks the point of attachment. NHPhenethyl = c1ccc(CCN*)cc1; Bz = O=C(c1ccccc1)*

How the values were obtained:
[1] = target: T1, Bifunctional purine biosynthesis protein ATIC (Homo sapiens, UniProt P31939); assay: Average inhibition of AICAR formyltransferase at 25 uM and 50 uM concentration relative to cappsin 2; Inactive
Target sequence in this assay (P31939 whole entry, looked up): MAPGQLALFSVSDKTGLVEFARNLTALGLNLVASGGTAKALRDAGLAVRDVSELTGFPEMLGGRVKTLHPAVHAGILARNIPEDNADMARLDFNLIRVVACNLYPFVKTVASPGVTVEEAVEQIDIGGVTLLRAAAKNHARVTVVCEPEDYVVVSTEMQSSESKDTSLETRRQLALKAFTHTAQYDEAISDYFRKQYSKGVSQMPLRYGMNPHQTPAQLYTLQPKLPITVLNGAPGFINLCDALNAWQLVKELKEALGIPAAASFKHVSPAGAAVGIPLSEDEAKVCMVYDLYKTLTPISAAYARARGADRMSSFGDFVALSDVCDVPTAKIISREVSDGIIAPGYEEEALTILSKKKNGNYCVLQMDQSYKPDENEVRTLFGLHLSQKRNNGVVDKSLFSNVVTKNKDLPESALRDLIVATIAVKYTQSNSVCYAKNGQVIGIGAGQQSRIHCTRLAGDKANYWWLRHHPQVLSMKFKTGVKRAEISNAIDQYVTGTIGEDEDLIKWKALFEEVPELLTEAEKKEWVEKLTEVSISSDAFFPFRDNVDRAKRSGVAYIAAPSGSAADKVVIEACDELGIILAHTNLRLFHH

[2] = target: T1, Bifunctional purine biosynthesis protein ATIC; assay: Inhibition constant against AICAR formyltransferase
Target sequence in this assay (P31939 whole entry): as the sequence (P31939 whole entry, looked up) above

inhibition [1] | Ki [2] [µM] | Compound
inactive | – | O=C(CNC(=O)CNC(=O)c1cccc([N+](=O)[O-])c1)NCCc1ccccc1
– | 8 | O=C(CNC(=O)CNC(=O)c1cccc(I)c1)NCCc1ccccc1
inactive | – | COc1cccc(C(=O)NCC(=O)NCC(=O)NCCc2ccccc2)c1
inactive | – | Cc1cccc(C(=O)NCC(=O)NCC(=O)NCCc2ccccc2)c1

The remaining lines, values behind:

Compound | inhibition [1] | Ki [2] [µM]
CCCNC(=O)CNC(=O)CNC(=O)c1cccc(I)c1 | inactive | –
O=C(CNC(=O)c1cccc(I)c1)NCC(=O)OCCc1ccccc1 | inactive | –
O=C(CNC(=O)CNC(=O)c1ccccc1)NCCc1ccccc1 (Bz-Gly-Gly-NHPhenethyl) | inactive | –
CN(CC(=O)NCCc1ccccc1)C(=O)CNC(=O)c1cccc(I)c1 | inactive | –
CNC(=O)CNC(=O)CNC(=O)c1cccc(I)c1 | inactive | –
COC(=O)CN(CC(=O)NCCc1ccccc1)C(=O)CNC(=O)c1cccc(I)c1 | inactive | –
O=C(CNC(=O)CNC(=O)c1ccccc1I)NCCc1ccccc1 | inactive | –
COc1ccc(CNC(=O)CN(CC(=O)NCCc2ccccc2)C(=O)CNC(=O)c2cccc(I)c2)cc1 | – | 3.1
